Measurements taken from paper PMC5794799, “Kaempferol mitigates Endoplasmic Reticulum Stress Induced Cell Death by targeting caspase 3/7” (Scientific Reports, 2018).

Molecular target: T1, caspase-3 (Homo sapiens, UniProt P42574)
T1 construct: gene CASP3; recombinant active caspase-3 enzyme
T1 sequence (P42574 29-175): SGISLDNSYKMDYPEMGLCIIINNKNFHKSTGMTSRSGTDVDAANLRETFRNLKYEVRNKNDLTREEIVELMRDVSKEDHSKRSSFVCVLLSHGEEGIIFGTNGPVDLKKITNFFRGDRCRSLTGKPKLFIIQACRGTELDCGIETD
T1 sequence (P42574 176-277): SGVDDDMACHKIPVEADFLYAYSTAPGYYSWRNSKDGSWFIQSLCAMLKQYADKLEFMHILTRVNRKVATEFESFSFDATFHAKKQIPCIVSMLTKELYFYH
Experiment: recombinant caspase-3 activity assay with luminogenic Z-DEVD-aminoluciferin (Caspase-Glo […]), dose response
Format: biochemical

- IC50: 5.65 µM
SMILES: O=c1c(O)c(-c2ccc(O)cc2)oc2cc(O)cc(O)c12 [kaempferol]
